In US20210024482A1, “Novel Group of STAT3 Pathway Inhibitors and Cancer Stem Cell Pathway Inhibitors” (Sumitomo Dainippon Pharma Oncology, Inc., priority 2007, published 2021):

Legend:
[1] = test system: Stat3; experiment: Stat3 DNA binding assay (EMSA) with HeLa nuclear extracts; format: biochemical; conditions: HeLa nuclear extract, FIG. 7A/7B
Procedure: Electrophoretic mobility shift assay (EMSA) was performed as described by the manufacturer (Li-Cor Biosciences, Lincoln, Nebr.). Briefly, nuclear extracts were made from HeLa cells using the NucBuster Protein Extraction Kit as described by the manufacturer (EMD Biosciences, San Diego, Calif.). 5 μg of nuclear extract was pre-incubated with the indicated dose of indicated compound for 30 minutes prior to a 15-minute incubation with the IR700-labeled consensus Stat3 oligonucleotide. Samples were then electrophoresed on a polyacrylamide gel and directly scanned using the Odyssey infrared imaging system (Li-Cor Biosciences). For the enzyme-linked immunosorbent assay (ELISA), 5 μg of nuclear extract was preincubated with indicated concentration of indicated compound for 30 minutes prior to the addition of biotinylated oligo (5′-Biotin-[…]-3′, SEQ ID NO. 1). Stat3-DNA complexes were then captured on streptavidin coated 96 well plates (Pierce, Rockford, Ill.). Bound complexes were then incubated with Stat3 polyclonal antibody (Santa Cruz Biotechnology, Santa Cruz, Calif.) followed by anti-rabbit HRP conjugated secondary antibody (GE Healthcare, Pittsburgh, Pa.). Bound antibody was then visualized by addition of TMB substrate (Pierce) and absorbance measured at 450 nm,
Nuclear extracts from HeLa cells, which contain constitutively activated Stat3 as detected by phoshporylation at the tyrosine 705 residue, were used to perform Stat3 EMSAs to monitor Stat3 DNA binding activity. Nuclear extracts were incubated with indicated compound prior to incubation with IR700-labeled Stat3 consensus oligonucleotide. Binding of Stat3 to the oligonucleotide was monitored by gel electrophoresis and detection using a LiCor Odyssey infrared scanner.

[2] = test system: Stat3; experiment: Stat3-luciferase (Stat3-Luc) reporter assay, OSM-stimulated HeLa cells; format: cell-based; conditions: FIG. 6
Procedure: HeLa Cells were co-transfected with Stat3-luciferase (Stat3-Luc) reporter vector (Panomics, Fremont, Calif.) and Renilla luciferase (Promega, Madison, Wis.) using Lipofectamine 2000 as described by the manufacturer (Invitrogen). Following transfection, cells were maintained in medium containing 0.5% FBS for 24 hours. Cells were then treated with the indicated compound for 30 minutes prior to the addition of 25 ng/ml oncostatin M (OSM) (R&D Systems, Minneapolis, Minn.) to the medium. 6 hours following OSM addition, cells were harvested and levels of firefly and renilla luciferase were measured using the Dual-Glo Luciferase Assay System as described by the manufacturer (Promega).
Compounds were tested for their ability to inhibit Stat3 transcription activation activity in cells using a Stat3-luciferase (Stat3-luc) reporter construct. Cells transfected with Stat3-luc were cultured in reduced serum medium prior to addition of indicated compound for 30 minutes. Cells were then stimulated with 25 ng/ml oncostatin M (OSM) for 6 hours followed by detection of Stat3-luc reporter activity. […] AG490, a known inhibitor of the Jak-Stat pathway, was included as a positive control for Stat3 inhibition.

[3] = test system: CD44^high FaDu cells; experiment: MTT cell viability, CD44high FaDu CSCs; format: cell-based; conditions: Homo sapiens, 48 h
Procedure: CD44^high cells were isolated by FACS according to the methods described in Ponti et al, with slight modification. Briefly, after trypsinization and recovery of cells for 30 minutes at 37° C. in growth media, cells were pelleted at 400×g and were resuspended in PBS with 2% FBS and 1 mM EDTA at 1×10^6 cells/mL. Cells were then incubated on ice with a 1:100 dilution of CD44-FITC (BD Biosicences, San Diego, Calif.) for 15 minutes. Alternatively, CD24-PE (BD Bioscences, San Diego, Calif.) (1:100) was utilized for negative selection. After washing three times, cells were resuspended at 2×10^6/mL and passed through a […] mesh before sorting.
(§1) For 3-(4,5 dimethylthiazol-2-yl)-2,5-diphenyltetrazolium (MTT) (Sigma-Aldrich, St. Louis, Mo.) analysis, cells were plated in 96 well plates at 10,000 cells per well. 24 hours after plating, compound was added to cells at indicated doses. 22 hours following compound addition, MTT was added to each well (0.5 mg/ml, final concentration) and plates were incubated for an additional 2 hours at 37° C. Medium was then aspirated and the formazan product was solubilized in 100 μl of isopropyl alcohol. The absorbance of each well was measured at 570 nm using a microplate reader.
In addition, we tested the activities of several other compounds against cancer stem cells. […]

[4] = test system: Paca2 cells; experiment: MTT cell viability Paca2; format: cell-based; conditions: PaCa-2; Paca2, Pancreas, MTT 24 hours
Procedure: as §1
(§2) Cells plated in 96 well plates and treated with indicated compounds were subjected to MTT analysis at 24 hours following compound treatment to determine cell viability.

[5] = test system: FaDu cells; experiment: MTT cell viability FaDu; format: cell-based; conditions: Homo sapiens, Head and Neck, MTT 24 hours
Procedure: as §1, §2

[6] = test system: SW480 non-side population (NSP) cells; experiment: MTT cell viability, SW480 non-side population; format: cell-based; conditions: Homo sapiens, 48 h
Procedure: (§3) To identify and isolate side population (SP) and non-SP fractions, SW480 cells were removed from the culture dish with trypsin and EDTA, pelleted by centrifugation, washed with phosphate-buffered saline (PBS), and resuspended at 37° C. in Dulbecco's modified Eagle's medium (DMEM) containing 2% FBS and 1 mM HEPES. The cells were then labeled with Hoechst 33342 (Invitrogen) at a concentration of 5 μg/mL. The labeled cells were incubated for 120 minutes at 37° C., either alone or with 50 μM verapamil (Sigma-Aldrich, St. Louis). After staining, the cells were suspended in Hanks' balanced saline solution (HBSS; Invitrogen) containing 2% FBS and 1 mM HEPES, passed a through 40 μm mesh filter, and maintained at 4° C. until flow cytometry analysis. The Hoechst dye was excited at 350 nm, and its fluorescence was measured at two wavelengths using a 450 DF10 (450/20 nm band-pass filter) and a 675LP (675 nm long-pass edge filter) optical filter. The gating on forward and side scatter was not stringent, and only debris was excluded,
For 3-(4,5 dimethylthiazol-2-yl)-2,5-diphenyltetrazolium (MTT) (Sigma-Aldrich, St. Louis, Mo.) analysis, cells were plated in 96 well plates at 10,000 cells per well. 24 hours after plating, compound was added to cells at indicated doses. […] The absorbance of each well was measured at 570 nm using a microplate reader. […]

[7] = test system: CD44^low FaDu cells; experiment: MTT cell viability, CD44low FaDu cells; format: cell-based; conditions: Homo sapiens, 48 h
[8] = test system: SW480 Hoechst SP cells; experiment: MTT cell viability, SW480 Hoechst side population CSCs; format: cell-based; conditions: for IC50: Homo sapiens, SW480 Hoechst SP, 48 h
Procedure: as §3, §1
The IC50 of compound 401 against the Hoechst side population was accessed in MTT assays and was compared to the IC50 against the non-side population.
In addition, we tested the activities of several other compounds against cancer stem cells. Briefly, freshly isolated CSCs (SW480 Hoechst SP cells or CD44^high FaDu cells) were exposed to a dose range (30-0.117 μM) of compound for 48 h before examining cell viability by MTT assay. IC50s were estimated by plotting the percentage of surviving cells. As shown in Table 4 and Table 5, compounds of present invention can target cancer stem cells.

[9] = test system: CD44^high CSCs; experiment: Sphere assay with CD44high CSCs; format: cell-based; conditions: spheres grown 72 hours before challenge, FIGS. 10A and 10B
Procedure: A reliable method of measuring the self-renewal capacity of cell population if the ability to be cultured as spheres in the absence of serum or attachment. CD44^high FaDu or Hoechst side population cancer stem cells were cultured in ultra low attachment plates in cancer stem cell media (DMEM/F12, B27 Neurobasal supplement, 20 ng/ml EGF, 10 ng/ml FGF, 4 μg/ml insulin, and 0.4% BSA) to allow spheres formation. Typically, sphere formation was evaluated by microscopy after 10-14 days in culture and spheres with >50 cells were scored.
One of the hallmarks cancer stem cells is their ability to self-renew. A reliable method of measuring the self-renewal capacity of cell populations is the ability to be cultured as spheres in the absence of serum or attachment. To compare the ability of compound 401 to other targeted and chemotherapeutic agents, FACS-isolated CD44^high CSCs were grown as spheres for 72 hours before being challenged with a panel of therapeutic agents. […] Tarceva, Sutent, and Gleevec were added at approximately three times their reported therapeutic concentrations.

[10] = test system: SW480 cells; experiment: Hoechst side population staining of SW480 cells; format: cell-based; conditions: treatment before Hoechst staining, FIG. 8A
Procedure: as §3
To confirm that this side population is enriched with cancer stem cells, a control set of SW480 cells were first treated with Verapamil, an inhibitor of ABC transporters, before stained with Hoechst.

CC(=O)c1cc2c(o1)C(=O)c1cc(Cl)ccc1C2=O [Compound 416, 2-Acetyl-7-Chloro-naphtho[2,3-b]furan-4,9-dione]
inhibition of Stat3 DNA binding activity [1]: can inhibit Stat3's DNA binding activity

CC(=O)c1cc2c(o1)C(=O)c1cc(F)ccc1C2=O [Compound 418, 2-Acetyl-7-Fluoro-naphtho[2,3-b]furan-4,9-dione]
inhibition of Stat3 DNA binding activity [1]: can inhibit Stat3's DNA binding activity

O=C(c1ccccc1)c1cc2cc3ccccc3cc2s1 [Compound 1001, reference compound]
inhibition of OSM-stimulated Stat3 reporter activity [2]: did not inhibit OSM-stimulated Stat3 reporter activity even at a much higher concentration

C=C(OP(=O)(O)O)C1=CC2C(=O)c3ccccc3C(=O)C2O1 (stereo not drawn) [Compound 4011, phosphoric acid mono-[1-(4,9-dioxo-3a,4,9,9a-tetrahydro-naphtho[2,3-b]furan-2-yl)-vinyl] ester]
IC50 [3]: 270 nM
IC50 [4]: 446 nM
IC50 [5]: 353 nM
IC50 [6]: 340 nM
IC50 [7]: 420 nM
IC50 [8]: 380 nM

C=C(OP(=O)(OC)OC)C1=CC2C(=O)c3ccccc3C(=O)C2O1 (stereo not drawn) [Compound 4012, phosphoric acid 1-(4,9-dioxo-3a,4,9,9a-tetrahydro-naphtho[2,3-b]furan-2-yl)-vinyl ester dimethyl ester]
IC50 [3]: 1050 nM
IC50 [5]: 1040 nM
IC50 [6]: 810 nM
IC50 [7]: 760 nM
IC50 [8]: 570 nM

COc1cccc2c1C(=O)c1c(O)c3c(c(O)c1C2=O)C[C@@](O)(C(=O)CO)C[C@@H]3O[C@H]1C[C@H](N)[C@H](O)[C@H](C)O1 [Doxorubicin, reference compound]
prevention of sphere proliferation [9]: spheres were resistant
sensitivity of side population compared to non-side population ([8]; FIG. 8B): the side population is much more resistant than the non-side population

COc1ccc(CCN(C)CCCC(C#N)(c2ccc(OC)c(OC)c2)C(C)C)cc1OC (stereo not drawn) [Verapamil]
effect on Hoechst side population [10]: loss of the side population

CC(=O)O[C@@]12CO[C@@H]1C[C@H](O)[C@@]1(C)C(=O)[C@H](O)C3=C(C)[C@@H](OC(=O)[C@H](O)[C@@H](NC(=O)OC(C)(C)C)c4ccccc4)C[C@@](O)([C@@H](OC(=O)c4ccccc4)[C@H]21)C3(C)C [docetaxel]
prevention of sphere proliferation [9]: spheres were resistant
